# Patent US8592403B2, “Diazepine and diazocane compounds as MC4 agonists” (Pfizer Limited, priority 2008, dated 2013)
# Columns and labels:
# CYP3A4 = biological target: T1, CYP3A4 (Homo sapiens, UniProt P08684); experiment: High density DDI 3 μM cocktail screen in human liver microsomes, midazolam probe; format: in vitro ADME; conditions: human, liver microsomes, probe midazolam, read-out: % inhibition 3A4 @ 3 μM
# T1 construct: utilizes human liver microsomes together with isoform-specific clinical drug probes; from tissue; host or cells: human liver microsomes
# Summary of the method: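 Pooled human liver microsomes incubated with isoform-specific clinical probe substrates as a cocktail (midazolam for CYP3A4), with or without test compound at 3 μM. Metabolite formation followed over time by LC-MS/MS. Inhibition expressed as a single-point percentage.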
# [1] = In vitro metabolism rate determination, human liver microsome (HLM) assay; format: in vitro ADME; conditions: human, liver microsomes, read-out: HLM: Clint, app
# Summary of the method: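 Human liver microsomes at 0.5 nmol cytochrome P450/ml with 1 μM substrate, pre-warmed 5 min at 37° C, reaction started with NADP; samples taken 0–60 min and terminated. Substrate loss measured; first-order rate constant from log-linear regression converted to half-life or Clint (μl/min/mg protein).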
# MC4 receptor = MC4 receptor (Homo sapiens, UniProt P32245); experiment: MC4 EC50 functional potency (protocol E of US2005/0176772 / WO 2005/077935); format: cell-based
# Experimental: The compounds of formula (I) of the present invention have utility as MCR4 agonists in the treatment of various disease states.
# MC5 and MC4 EC50 activity was determined as described by assay protocols D and E, respectively, in US2005/0176772 (pages 28-30).
# MC4 receptor (MC4R) = biological target: T2, MC4 receptor (MC4R) (Homo sapiens, UniProt P32245); experiment: Nle4, D-Phe7-α-MSH inhibition at the MC4 receptor (competition binding, SPA, CHO-CRE MC4R membranes)
# T2 construct: expressed in transfected cells; host or cells: CHO-CRE MC4R cells (membranes)
# Excerpt: Nle4, D-Phe7-α-MSH Inhibition at the MC4 Receptor
# (§1) Nle4, D-Phe7-α-MSH is a stable analogue of melanocyte-stimulating hormone (MSH), which is an agonist at the MC4 receptor (MC4R). Compounds can be evaluated for their ability to inhibit Nle4, D-Phe7-α-MSH binding to membranes from cells expressing the MC4R using a competition binding assay versus [^125I] Nle4, D-Phe7-α-MSH.
# Cells expressing the MC4R were subject to homogenisation and the membrane fragment isolated by differential centrifugation. CHO-CRE MC4R cell membranes were coupled to PVT-PEI-WGA SPA Beads type A for 2 hours, spun at 1000 RPM for 5 min and suspended to a concentration of 300 ug bead/ml (0.15 ug membrane, 15 ug bead per well). Bead/membrane mix was incubated with 0.06 nM [^125I] Nle4, D-Phe7-α-MSH and 11 half-log concentrations of competitor ligand, in duplicate, in a total volume of 50 μl buffer per well (25 mM HEPES, 1 mM MgCl2, 2.5 mM CaCl2, 1% Pluronic F68, 1 complete EDTA protease inhibitor tablet/50 ml pH7). Non-specific binding was determined by the inclusion of 100 nM SHU9119. The reaction was initiated by the addition of bead/membranes and plates were incubated at room temperature for 12 hours (the first hour on a plate shaker), after which the amount of radioactivity present was determined using a Wallac plate counter. Ki values were determined by data analysis using appropriate software.
# MC3 receptor (MC3R) = biological target: T3, MC3 receptor (MC3R) (Homo sapiens, UniProt P41968); experiment: Nle4, D-Phe7-α-MSH inhibition at the MC3 receptor (competition binding, SPA, CHO-CRE MC3R membranes)
# T3 construct: expressed in transfected cells; host or cells: CHO-CRE MC3R cells (membranes)
# Excerpt: Nle4, D-Phe7-α-MSH Inhibition at the MC3 Receptor
# as §1, with “MC3” for “MC4”, “(MC3R).” for “(MC4R).”, “MC3R” for “MC4R”
# Cells expressing the MC3R were subject to homogenisation and the membrane fragment isolated by differential centrifugation. CHO-CRE MC3R cell membranes were coupled to PVT-PEI-WGA SPA Beads type A for 2 hours, spun at 1000 RPM for 5 mins and suspended to a final assay concentration of 800 ug bead/ml (1.2 ug membrane, 40 ug bead per well). Bead/membrane mix was incubated with 0.06 nM [^125I] Nle4, D-Phe7-α-MSH and 11 half-log concentrations of competitor ligand, in duplicate, in a total volume of 50 μl buffer per well (25 mM HEPES, 1 mM MgCl2, 2.5 mM CaCl2, 1% Pluronic F68, 1 complete EDTA protease inhibitor tablet/50 ml pH7). Non-specific binding was determined by the inclusion of 100 nM SHU9119. The reaction was initiated by the addition of bead/membranes and plates were incubated at room temperature for 12 hours (the first hour on a plate shaker), after which the amount of radioactivity present was determined using a Wallac plate counter. Ki values were determined by data analysis using appropriate software.
# Sequence of MC4 receptor (P32245 whole entry): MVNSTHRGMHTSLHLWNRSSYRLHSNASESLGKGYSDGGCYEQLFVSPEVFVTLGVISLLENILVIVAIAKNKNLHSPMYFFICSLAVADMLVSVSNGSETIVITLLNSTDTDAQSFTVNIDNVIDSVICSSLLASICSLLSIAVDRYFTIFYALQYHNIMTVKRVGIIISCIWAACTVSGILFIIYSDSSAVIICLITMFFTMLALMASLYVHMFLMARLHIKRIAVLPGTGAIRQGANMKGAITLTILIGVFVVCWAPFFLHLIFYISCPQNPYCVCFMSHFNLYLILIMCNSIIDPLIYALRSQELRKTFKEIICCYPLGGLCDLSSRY
# T2 sequence (P32245 whole entry): as above
# T3 sequence (P41968 whole entry): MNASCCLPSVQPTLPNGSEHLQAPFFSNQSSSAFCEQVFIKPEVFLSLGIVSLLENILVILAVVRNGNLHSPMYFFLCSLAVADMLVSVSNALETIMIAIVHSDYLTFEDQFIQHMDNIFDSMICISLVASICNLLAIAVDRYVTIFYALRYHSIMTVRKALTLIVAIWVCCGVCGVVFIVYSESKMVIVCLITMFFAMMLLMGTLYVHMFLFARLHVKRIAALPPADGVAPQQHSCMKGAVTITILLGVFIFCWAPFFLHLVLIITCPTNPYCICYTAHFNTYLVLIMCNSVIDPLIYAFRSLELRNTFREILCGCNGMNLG
# T1 sequence (P08684 whole entry, canonical isoform): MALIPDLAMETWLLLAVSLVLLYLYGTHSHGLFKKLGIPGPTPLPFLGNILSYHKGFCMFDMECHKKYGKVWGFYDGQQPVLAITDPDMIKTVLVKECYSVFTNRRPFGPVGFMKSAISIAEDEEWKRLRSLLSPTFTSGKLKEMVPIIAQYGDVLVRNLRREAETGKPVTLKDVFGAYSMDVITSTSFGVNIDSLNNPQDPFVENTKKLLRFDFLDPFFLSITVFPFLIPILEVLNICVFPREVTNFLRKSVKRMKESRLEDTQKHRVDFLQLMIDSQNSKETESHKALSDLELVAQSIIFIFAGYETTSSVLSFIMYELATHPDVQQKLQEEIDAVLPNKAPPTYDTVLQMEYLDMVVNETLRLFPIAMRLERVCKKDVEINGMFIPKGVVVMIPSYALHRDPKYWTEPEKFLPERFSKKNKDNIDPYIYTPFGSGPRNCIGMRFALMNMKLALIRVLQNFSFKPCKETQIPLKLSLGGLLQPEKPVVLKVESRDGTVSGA
SMILES,inhibition at 3 µM (CYP3A4),microsomal CLint at 1 μM [1],EC50 (MC4 receptor),Ki (MC4 receptor (MC4R)),Ki (MC3 receptor (MC3R))
"COC(=O)N1CCN(C(=O)[C@@H]2CN(c3ccc(=O)[nH]n3)C[C@H]2c2ccc(OC)cc2F)CCC[C@H]1c1ccc(Cl)cc1 [Example 69, methyl 8S-(4-chlorophenyl)-4-{[(3S,4R)-4-(2-fluoro-4-methoxyphenyl)-1-(6-oxo-1,6-dihydropyridazin-3-yl)pyrrolidin-3-yl]carbonyl}-1,4-diazocane-1-carboxylate]",53%,8 µL/min/mg,0.0076 µM,0.0164 µM,0.99 µM
CC(C)(C)N1C[C@@H](C(=O)N2CCC[C@@H](c3ccc(Cl)cc3)N(C(=O)C3CCCC3)CC2)[C@H](c2ccc(F)cc2F)C1 [Example 17],66.9%,118 µL/min/mg,0.0433 µM,0.513 µM,2.78 µM
COC(=O)N1CCN(C(=O)[C@@H]2CN(C(=O)OC(C)(C)C)C[C@H]2c2ccc(F)cc2F)CCCC1c1ccccc1 (mixture of isomers) [Example 97],63%,247 µL/min/mg,0.157 µM,1.62 µM,3.72 µM
"COC(=O)N1CCN(C(=O)[C@@H]2CN(c3ccc(=O)[nH]n3)C[C@H]2c2ccc(OC)cc2F)CCCC1c1ccc(Cl)cc1 (mixture of isomers) [Example 112, methyl 8-(4-chlorophenyl)-4-{[(3S,4R)-4-(2-fluoro-4-methoxyphenyl)-1-(6-oxo-1,6-dihydropyridazin-3-yl)pyrrolidin-3-yl]carbonyl}-1,4-diazocane-1-carboxylate]",65.5%,15 µL/min/mg,0.00338 µM,0.0174 µM,0.404 µM
"COC(=O)N1CCN(C(=O)[C@@H]2CN(c3ccc(Cl)nn3)C[C@H]2c2ccc(OC)cc2F)CCCC1c1ccc(Cl)cc1 (mixture of isomers) [Example 107, Methyl 8-(4-chlorophenyl)-4-{[(3S,4R)-1-(6-chloropyridazin-3-yl)-4-(2-fluoro-4-methoxyphenyl)pyrrolidin-3-yl]carbonyl}-1,4-diazocane-1-carboxylate]",55.5%,47 µL/min/mg,0.0277 µM,0.0964 µM,0.683 µM
"COC(=O)N1CCN(C(=O)[C@@H]2CN(c3ccc(C#N)nn3)CC2c2ccc(OC)cc2F)CCCC1c1ccc(Cl)cc1 (stereo in doubt) [Example 106, methyl 8-(4-chlorophenyl)-4-{[(3S,4S)-4-(2-fluoro-4-methoxyphenyl)-1-(6-cyanopyridazin-3-yl)pyrrolidin-3-yl]carbonyl}-1,4-diazocane-1-carboxylate]",66.5%,38 µL/min/mg,0.0064 µM,0.0285 µM,0.25 µM
COc1cccc(C2CCCN(C(=O)[C@@H]3CN(c4ccc(C#N)nn4)C[C@H]3c3ccc(F)cc3F)CCN2C(C)=O)c1 (mixture of isomers) [Example 4],36.5%,237 µL/min/mg,0.145 µM,0.555 µM,0.815 µM
CN(C)C(=O)N1CCN(C(=O)[C@@H]2CN(c3ccc(C#N)nn3)C[C@H]2c2ccc(Cl)cn2)CCC[C@H]1c1ccc(Cl)cc1 [Example 45],75.8%,234 µL/min/mg,0.0108 µM,0.121 µM,0.101 µM
COC(=O)N1CCN(C(=O)[C@@H]2CN(C3CCOCC3)C[C@H]2c2ccc(F)cc2F)CCCC1c1ccccc1 (mixture of isomers) [Example 74],56%,74 µL/min/mg,0.0867 µM,1.39 µM,19.6 µM
COC(=O)N1CCN(C(=O)[C@@H]2CN(C(C)(C)C)C[C@H]2c2ccc(F)cc2F)CCCC1c1ccccc1 (mixture of isomers) [Example 82],47%,66 µL/min/mg,0.0606 µM,5.18 µM,19.4 µM
CC(C)CC(=O)N1CCN(C(=O)[C@@H]2CN(C(C)(C)C)C[C@H]2c2ccc(F)cc2F)CCC[C@H]1c1ccc(Cl)cc1 [Example 16],55.5%,92.6 µL/min/mg,0.0185 µM,0.378 µM,2.1 µM
"COc1ccc([C@@H]2CN(c3ccc(=O)[nH]n3)C[C@H]2C(=O)N2CCCC(c3ccc(Cl)cc3)N(S(C)(=O)=O)CC2)c(F)c1 (single isomer, unassigned) [Example 113]",44.3%,24.8 µL/min/mg,0.0127 µM,0.0505 µM,1.3 µM
Cn1nc(N2C[C@@H](C(=O)N3CCCC(c4ccc(Cl)cc4)N(S(C)(=O)=O)CC3)[C@H](c3ccc(F)cc3F)C2)ccc1=O (mixture of isomers) [Example 81],32%,18 µL/min/mg,0.02 µM,0.122 µM,1.75 µM
"COc1ccc(C2CCCN(C(=O)[C@@H]3CN(c4ccc(C#N)nn4)C[C@H]3c3ccc(F)cc3F)CCN2C(C)=O)cc1 (mixture of isomers) [Example 1, 6-[(3S,4R)-3-{[4-acetyl-5-(4-methoxyphenyl)-1,4-diazocan-1-yl]carbonyl}-4-(2,4-difluorophenyl)pyrrolidin-1-yl]pyridazine-3-carbonitrile]",63%,31 µL/min/mg,0.159 µM,2.09 µM,2.98 µM
"COc1ccc([C@@H]2CN(c3ccc(C#N)nn3)C[C@H]2C(=O)N2CCCC(c3ccc(Cl)cc3)N(S(C)(=O)=O)CC2)c(F)c1 (mixture of isomers) [Example 105, 6-[(3S,4R)-3-{[5-(4-chlorophenyl)-4-(methylsulfonyl)-1,4-diazocan-1-yl]carbonyl}-4-(2-fluoro-4-methoxyphenyl)pyrrolidin-1-yl]pyridazine-3-carbonitrile]",37.5%,42 µL/min/mg,0.0361 µM,0.0922 µM,0.571 µM
"COC(=O)N1CCN(C(=O)[C@@H]2CN(c3ccc(C#N)nn3)C[C@H]2c2ccc(Cl)cn2)CCC[C@H]1c1ccc(Cl)cc1 [Example 98, methyl 8S-(4-chlorophenyl)-4-{[(3S,4S)-4-(5-chloropyridin-2-yl)-1-(6-cyanopyridazin-3-yl)pyrrolidin-3-yl]carbonyl}-1,4-diazocane-1-carboxylate]",46.9%,13.9 µL/min/mg,0.00526 µM,0.052 µM,0.201 µM
COC(=O)N1CCN(C(=O)[C@@H]2CN(C(C)(C)C)C[C@H]2c2ccc(F)cc2F)CCCC1c1ccc(Cl)cc1 (mixture of isomers) [Example 83],29%,23 µL/min/mg,0.0321 µM,1.69 µM,8.11 µM
COC(=O)N1CCN(C(=O)[C@@H]2CN(c3ccc(C#N)nn3)C[C@H]2c2ccc(F)cc2F)CCCC1c1cccc(OC)c1 (mixture of isomers) [Example 50],76.5%,266 µL/min/mg,0.074 µM,0.379 µM,1.61 µM
